Entries after “also recorded” stand apart in the source; their conditions may differ. Where two headings read alike, the source gives them in different places.
Assays:
human TRPA1 [1] = molecular target: T1, human TRPA1 (Homo sapiens, UniProt O75762); assay: FLIPR Ca2+ assay, reduction of hydrogen peroxide activation of TRPA1; assay type: cell-based; set-up: expressed in transfected cells; settings: for inhibition at 100 µM / inhibition at 400 µM: read-out: % Reduction of Hydrogen Peroxide TRPA1 Activation; for inhibition at 400 µM: antagonist 400 μM against 200 μM hydrogen peroxide
T1 sequence (O75762 whole entry): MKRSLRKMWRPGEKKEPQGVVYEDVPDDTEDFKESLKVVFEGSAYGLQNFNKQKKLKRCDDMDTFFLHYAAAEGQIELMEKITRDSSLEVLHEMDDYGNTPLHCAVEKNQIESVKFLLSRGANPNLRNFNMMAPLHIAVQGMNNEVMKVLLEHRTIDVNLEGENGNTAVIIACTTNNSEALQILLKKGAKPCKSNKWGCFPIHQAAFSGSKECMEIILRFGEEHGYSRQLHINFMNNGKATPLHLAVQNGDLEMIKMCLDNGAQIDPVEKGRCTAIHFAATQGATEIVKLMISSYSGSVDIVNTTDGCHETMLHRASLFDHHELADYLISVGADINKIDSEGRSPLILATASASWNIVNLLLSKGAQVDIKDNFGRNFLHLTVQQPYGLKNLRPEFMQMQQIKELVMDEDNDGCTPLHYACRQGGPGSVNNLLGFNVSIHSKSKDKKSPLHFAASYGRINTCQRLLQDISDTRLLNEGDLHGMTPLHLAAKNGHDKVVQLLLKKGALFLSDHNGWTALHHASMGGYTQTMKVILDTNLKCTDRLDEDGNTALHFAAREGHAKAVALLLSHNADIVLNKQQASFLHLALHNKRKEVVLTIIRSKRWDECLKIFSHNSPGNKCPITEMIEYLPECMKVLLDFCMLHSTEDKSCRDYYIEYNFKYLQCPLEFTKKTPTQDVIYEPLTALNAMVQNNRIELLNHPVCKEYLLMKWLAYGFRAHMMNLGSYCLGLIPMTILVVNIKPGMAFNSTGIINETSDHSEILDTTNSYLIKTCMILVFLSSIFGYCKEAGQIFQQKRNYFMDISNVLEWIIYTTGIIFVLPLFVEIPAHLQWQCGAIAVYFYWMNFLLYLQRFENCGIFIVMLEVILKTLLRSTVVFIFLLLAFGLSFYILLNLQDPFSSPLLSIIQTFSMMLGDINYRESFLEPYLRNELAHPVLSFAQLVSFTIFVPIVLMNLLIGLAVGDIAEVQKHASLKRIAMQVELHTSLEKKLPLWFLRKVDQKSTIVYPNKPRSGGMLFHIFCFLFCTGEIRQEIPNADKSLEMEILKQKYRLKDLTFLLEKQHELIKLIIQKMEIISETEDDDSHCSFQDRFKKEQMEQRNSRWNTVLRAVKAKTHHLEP
Procedure: After centrifugation, a pellet of cells was formed in the bottom of the tube separating them from the supernatant solution.
(§1) The pelleted cells were re-suspended in 10 ml assay buffer and 90 μl aliquots (˜50,000 cells) per well delivered to a 96-well assay plate containing 10 μl of test compounds ([…]) or buffer control and incubated at room temperature for 30 minutes.

human TRPV1 [2] = molecular target: T2, human TRPV1 (Homo sapiens, UniProt Q8NER1); assay: FLIPR Ca2+ assay, reduction of L-Menthol activation of TRPV1; settings: for Average Ca2+ Counts / % Reduction of L-Menthol TRPV1 Activation: antagonist 100 μM against 1 mM L-Menthol; for inhibition at 100 µM: read-out: % Reduction of L-Menthol TRPV1 Activation
T2 sequence (Q8NER1 whole entry): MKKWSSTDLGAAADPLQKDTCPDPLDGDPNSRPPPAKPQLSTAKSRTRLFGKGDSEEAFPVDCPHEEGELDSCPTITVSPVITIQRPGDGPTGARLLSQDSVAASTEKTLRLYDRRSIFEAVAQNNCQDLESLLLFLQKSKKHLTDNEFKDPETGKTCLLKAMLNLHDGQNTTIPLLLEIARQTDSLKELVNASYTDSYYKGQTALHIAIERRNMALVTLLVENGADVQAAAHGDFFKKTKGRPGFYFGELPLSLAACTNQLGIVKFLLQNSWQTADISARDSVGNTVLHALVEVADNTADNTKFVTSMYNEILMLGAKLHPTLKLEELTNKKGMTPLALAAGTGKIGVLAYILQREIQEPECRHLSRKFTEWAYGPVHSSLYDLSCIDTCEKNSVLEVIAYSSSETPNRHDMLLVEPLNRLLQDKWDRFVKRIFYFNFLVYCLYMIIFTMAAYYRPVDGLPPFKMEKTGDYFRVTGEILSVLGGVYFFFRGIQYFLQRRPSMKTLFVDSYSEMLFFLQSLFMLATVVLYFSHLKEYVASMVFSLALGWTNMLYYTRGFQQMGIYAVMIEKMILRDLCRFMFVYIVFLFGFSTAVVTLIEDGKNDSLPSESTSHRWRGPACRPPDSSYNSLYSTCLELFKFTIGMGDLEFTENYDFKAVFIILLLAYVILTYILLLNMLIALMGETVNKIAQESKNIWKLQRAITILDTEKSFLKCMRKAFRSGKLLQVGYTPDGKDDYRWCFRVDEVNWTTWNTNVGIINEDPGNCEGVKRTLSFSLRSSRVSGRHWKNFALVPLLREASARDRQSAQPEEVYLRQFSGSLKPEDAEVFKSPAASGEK
Procedure: To determine whether TRPV1 was activated, the intracellular calcium ion (Ca^+2) levels from cells transfected with the TRPV1 receptor gene was measured. HEK-239 cells stably transfected with human TRPV1 were grown in 15 ml growth medium [high glucose DMEM (Dulbecco's Modification of Eagle's Medium) supplemented with 10% FBS (fetal bovine serum), 100 g/ml Penicillin/streptomycin, 100 g/ml G418] in a 75 Cm2 flask for 3 days at 33° C. in a mammalian cell culture incubator set at 5% CO2. Cells were detached with addition of 10 ml of PBS (phosphate buffered saline) by hand shaking gently. Cells were transferred to a 50 ml tube and centrifuged at 850 rpm for 3 minutes to remove PBS. After centrifugation, a pellet of cells formed in the bottom of the tube separating them from the supernatant solution. The supernatant was discarded and the cell pellet suspended in 1 ml of fresh growth medium to which 5 μl (12.5 g) of Fluo-4 AM (Molecular Probes, Inc., Eugene, Oreg.) calcium indicator was added and incubated for 30 minutes with gentle shaking.
The pelleted cells were re-suspended in 10 ml assay buffer and 90 μl aliquots (˜50,000 cells) per well delivered to a 96-well assay plate containing 10 μl of test compounds (1 mM in assay buffer, final concentration 100 μM) or buffer control and incubated at room temperature for 30 minutes. After 30 minutes, the plate was placed into a fluorometric imaging plate reader (FLIPR384 from Molecular Devices) and basal fluorescence recorded (excitation wave length 488 nm and emission wave length 510 nm). Then 20 μl of the compound being tested as a TRPV1 receptor activator was added and fluorescence recorded. […] It may be no difference (no effect), or negative (means antagonist or desensitizer) or positive (enhancer, also known as positive allosteric modulator). […] To determine if a compound was an antagonist or a desensitizer, the direct effect of a test compound was determined. For determining the direct effect of test compounds on TRPV1, 100 μl aliquots (˜50,000 cells) of cells prepared as described above were delivered to a 96-well assay plate and basal fluorescence recorded as noted above. Then 20 μl of the compound being tested as a TRPV1 receptor activator was added and fluorescence recorded. If any increase in fluorescence over background was noted, then the compound was considered an agonist. The agonist activity was expressed relative to that observed with a benchmark agonist such as 350 nM Capsaicin for TRPV1.
100 μM of antagonist was tested against 1 mM of L-Menthol to determine the level of reduced TRPV1 receptor activation by L-Menthol. Each antagonist compound was run with 1 mM of L-Menthol as a control and the antagonist activity of each compound was determined by comparing the Ca^2+ levels of the control with the antagonist compound being tested.

human TRPA1 [3] = molecular target: T1, human TRPA1; assay: FLIPR Ca2+ assay, reduction of L-Menthol activation of TRPA1
Procedure: In order to determine whether TRPA1 is activated, the intracellular calcium ion (Ca^2+) level from transfected cells with the TRPA1 receptor gene was measured. HEK-2 cells stably transfected with human TRPA1 were grown in 15 ml growth medium [high glucose DMEM (Dulbecco's Modification of Eagle's Medium) supplemented with 10% FBS (fetal bovine serum), 100 μg/ml Penicillin/streptomycin, 100 μg/ml G418] in a 75 Cm^2 flask for 3 days at 37° C. in a mammalian cell culture incubator set at 5% CO2. Cells were detached with addition of 10 ml of PBS (phosphate buffered saline) by hand shaking gently and transferred to a 50 ml tube and centrifuged at 850 rpm for 3 minutes to remove PBS. After centrifugation, a pellet of cells was formed in the bottom of the tube separating them from the supernatant solution. […] Fluo-4 is a fluorescent dye used for quantifying cellular Ca^2+ concentrations in the 100 nM to 1 μM range.
The pelleted cells were re-suspended in 10 ml assay buffer and 90 μl aliquots (˜50,000 cells) per well delivered to a 96-well assay plate containing 10 μl of test compounds (1 mM in assay buffer, final concentration 100 μM) or buffer control and incubated at room temperature for 30 minutes. After 30 minutes, the plate was placed into a fluorometric imaging plate reader (FLIPR384 from Molecular Devices) and basal fluorescence recorded (excitation wave length 488 nm and emission wave length 510 nm). Then 20 μl of the molecule being tested as a TRPA1 antagonist was added and fluorescence recorded. For determining the direct effect of test compounds on TRPA1, fluorescence was measured immediately after addition of each compound.
To determine if a compound was an antagonist or a desensitizer the direct effect of a test compound was determined. For determining the direct effect of test compounds on TRPA1 receptor activation, 100 μl aliquots (˜50,000 cells) of cells prepared as described above were delivered to a 96-well assay plate and basal fluorescence recorded as noted above. Then 20 μl of the compound being tested as a TRPA1 activator was added and fluorescence recorded. If any increase in fluorescence over background was noted, then the compound was considered an agonist.

human TRPA1 [4] = molecular target: T1, human TRPA1; assay: FLIPR Ca2+ assay, block of AITC activation of TRPA1; assay type: cell-based; set-up: expressed in transfected cells
Procedure: Intracellular Ca^++ levels were measured using cell based assays as described for EXAMPLES 1, 2, and 3.

human TRPV1 [5] = molecular target: T2, human TRPV1; assay: FLIPR Ca2+ assay, reduction of capsaicin activation of TRPV1; assay type: cell-based; set-up: expressed in transfected cells; settings: with compound, Dose 1000, 350 nM Capsaicin
Procedure: (§2) Cells were detached with addition of 10 ml of PBS (phosphate buffered saline) by hand shaking gently. Cells were transferred to a 50 ml tube and centrifuged at 850 rpm for 3 minutes to remove PBS.
as §1

human TRPV1 [6] = molecular target: T2, human TRPV1; assay: FLIPR Ca2+ assay, reduction of hydrogen peroxide activation of TRPV1; assay type: cell-based; set-up: expressed in transfected cells
Procedure: as §2
The pelleted cells were re-suspended in 10 ml assay buffer and 90 μl aliquots (˜50,000 cells) per well delivered to a 96-well assay plate containing 10 μl of test compounds (1 mM in assay buffer, […]) or buffer control and incubated at room temperature for 30 minutes.

[7] = 100 μM antagonist vs 500 μM hydrogen peroxide
[8] = compound 100 μM against 200 μM hydrogen peroxide, Sets 1-4
[9] = 100 μM antagonist vs 1 mM L-Menthol
[10] = 400 μM antagonist vs 500 μM hydrogen peroxide

Compound	Block of hydrogen peroxide activation of TRPA1 (human TRPA1 [1]; [7])	Average Ca++ Counts (human TRPA1 [1]; [8]) [Counts]	inhibition at 100 µM (human TRPA1 [1]; [8]) [%]	Average Ca2+ Counts (human TRPV1 [2]) [Counts]	inhibition at 100 µM (human TRPV1 [2]) [%]	Block of L-Menthol activation of TRPA1 (human TRPA1 [3]; [9])	Block of AITC activation of TRPA1 (human TRPA1 [4]; 100 μM antagonist)	other results
CCCCCCCCCCCCCCCCCC(=O)OCC(O)CO (racemic) [1-stearoyl-rac-glycerol]	Block menthol, H2O2, and AITC on TRPA1	3131.0	55.5	4708.0	26.4	Block menthol, H2O2, and AITC on TRPA1	Block menthol, H2O2, and AITC on TRPA1	
CC(S)C(C)S (stereo not drawn) [2,3-butanedithiol]	Block menthol, H2O2, and AITC on TRPA1	1280.5	87.9	586.0	64.8	Block menthol, H2O2, and AITC on TRPA1	Block menthol, H2O2, and AITC on TRPA1	
CC1(O)CSC(C)(O)CS1 (stereo not drawn) [2,5-dimethyl-1,4-dithiane-2,5-diol]	Block menthol, H2O2, and AITC on TRPA1	2420.0	77.2	713.7	58.9	Block menthol, H2O2, and AITC on TRPA1	Block menthol, H2O2, and AITC on TRPA1	
Cc1cc(S)c(C)o1 [2,5-dimethylfuran-3-thiol]				1443.0	25.2	BLOCK BOTH MENTHOL AND AITC ON TRPA1	BLOCK BOTH MENTHOL AND AITC ON TRPA1	
CCOc1nccnc1CC [2-Ethoxy-3-ethylpyrazine]								Ca++ counts (human TRPV1 [5]): 14878; inhibition at 100 µM (human TRPV1 [6]; antagonist 100 μM against 500 μM hydrogen peroxide): 58%; Ca++ counts (human TRPV1 [6]; with compound, Dose 1000, 500 uM H2O2): 474
SCCc1cnccn1 [2-Pyrazinyl ethanethiol]	Block menthol, H2O2, and AITC on TRPA1					Block menthol, H2O2, and AITC on TRPA1	Block menthol, H2O2, and AITC on TRPA1	
O=C(CCl)c1ccccc1 [2-chloroacetophenone]	Block menthol, H2O2, and AITC on TRPA1	1199.5		1313.0	31.2	Block menthol, H2O2, and AITC on TRPA1	Block menthol, H2O2, and AITC on TRPA1	inhibition at 100 µM (human TRPA1 [1]): 88.7%
CCc1ccccc1S [2-ethylbenzenethiol]	Block menthol, H2O2, and AITC on TRPA1	4808.5	54.6			Block menthol, H2O2, and AITC on TRPA1	Block menthol, H2O2, and AITC on TRPA1	
CC1SCCS1 [2-methyl-1,3-dithiolane]	Block menthol, H2O2, and AITC on TRPA1	2402.0	72.5	2650.5	34.3	Block menthol, H2O2, and AITC on TRPA1	Block menthol, H2O2, and AITC on TRPA1	
Cc1occc1S [2-methyl-3-furanthiol]				2835.5	38.9	BLOCK BOTH MENTHOL AND AITC ON TRPA1; also recorded: BLOCK ONLY MENTHOL/TRPA1	BLOCK BOTH MENTHOL AND AITC ON TRPA1	
CCCCCCCCCC(C)=O [2-undecanone]				1282.3	32.6	Block menthol, H2O2, and AITC on TRPA1	Block menthol, H2O2, and AITC on TRPA1	Average Ca++ Counts (human TRPA1 [1]): 4581.0 Counts; Block of hydrogen peroxide activation of TRPA1 (human TRPA1 [1]): Block menthol, H2O2, and AITC on TRPA1; inhibition at 100 µM (human TRPA1 [1]): 56.8%
CSCCCN=C=S [3-(methylthio)propyl isothiocyanate]				1426.7	25.9	BLOCK BOTH MENTHOL AND AITC ON TRPA1	BLOCK BOTH MENTHOL AND AITC ON TRPA1	
CCCCOC(=O)c1ccc(O)cc1 [butyl 4-hydroxybenzoate]				319.0	77.2	Block menthol, H2O2, and AITC on TRPA1	Block menthol, H2O2, and AITC on TRPA1	Average Ca++ Counts (human TRPA1 [1]): 411.0 Counts; Block of hydrogen peroxide activation of TRPA1 (human TRPA1 [1]): Block menthol, H2O2, and AITC on TRPA1; inhibition at 100 µM (human TRPA1 [1]): 96.1%
[Cu+].[I-] [copper(i) iodide]	Block menthol, H2O2, and AITC on TRPA1			651.5		Block menthol, H2O2, and AITC on TRPA1	Block menthol, H2O2, and AITC on TRPA1	% Reduction of Hydrogen Peroxide TRPA1 Activation (human TRPA1 [1]; [8]): 90.4%; % Reduction of L-Menthol TRPV1 Activation (human TRPV1 [2]): 89.8%
c1ccc(SSc2ccccc2)cc1 [diphenyl disulfide]				1630.5	64.9	Block menthol, H2O2, and AITC on TRPA1	Block menthol, H2O2, and AITC on TRPA1	Average Ca++ Counts (human TRPA1 [1]): 1112.0 Counts; Block of hydrogen peroxide activation of TRPA1 (human TRPA1 [1]): Block menthol, H2O2, and AITC on TRPA1; inhibition at 100 µM (human TRPA1 [1]): 81.1%
CCOC(=O)CC(C)=O [ethyl acetoacetate]	Block both H2O2 and AITC on TRPA1	3314.5	43.6				Block both H2O2 and AITC on TRPA1	
CC(C)OC(=O)C(C)C [isobutyric acid isopropyl ester]	Block both H2O2 and AITC on TRPA1	3392.5	51.8				Block both H2O2 and AITC on TRPA1	
COc1ccccc1C=CC=O [o-Methoxycinnamaldehyde]								Block of hydrogen peroxide activation of TRPA1 (human TRPA1 [1]; [10]): Block both H2O2 and AITC on TRPA1; inhibition at 400 µM (human TRPA1 [1]): 51%; Block of AITC activation of TRPA1 (human TRPA1 [4]; 400 μM antagonist): Block both H2O2 and AITC on TRPA1
O=C(Oc1ccccc1)c1ccccc1O [phenyl salicylate]	Block both H2O2 and AITC on TRPA1	2893.5	72.7				Block both H2O2 and AITC on TRPA1	
O=CCc1ccccc1 [phenylacetaldehyde]	Block menthol, H2O2, and AITC on TRPA1	2578.5	75.7	919.3	49.4	Block menthol, H2O2, and AITC on TRPA1	Block menthol, H2O2, and AITC on TRPA1	
O=C(CCc1ccc(O)cc1)c1c(O)cc(O)cc1O [phloretin]	Block menthol, H2O2, and AITC on TRPA1	215.0	96.9	4616.5	27.9	Block menthol, H2O2, and AITC on TRPA1	Block menthol, H2O2, and AITC on TRPA1	
O=C(O)CCC(=O)O [succinic acid]				1045.0	43.6	BLOCK BOTH MENTHOL AND AITC ON TRPA1	BLOCK BOTH MENTHOL AND AITC ON TRPA1	
CCCC/C=C/C=C/C=O [trans, trans-2,4-Nonadienal]								Block of hydrogen peroxide activation of TRPA1 (human TRPA1 [1]; [10]): Block both H2O2 and AITC on TRPA1; inhibition at 400 µM (human TRPA1 [1]): 67%; Block of AITC activation of TRPA1 (human TRPA1 [4]; 400 μM antagonist): Block both H2O2 and AITC on TRPA1
manganese chloride	Block menthol, H2O2, and AITC on TRPA1	2872.5		3922.0				% Reduction of Hydrogen Peroxide TRPA1 Activation (human TRPA1 [1]; [8]): 59.2%; % Reduction of L-Menthol TRPV1 Activation (human TRPV1 [2]): 38.7%; Block of L-Menthol activation of TRPA1 (human TRPA1 [3]): Block menthol, H2O2, and AITC on TRPA1; Block of AITC activation of TRPA1 (human TRPA1 [4]): Block menthol, H2O2, and AITC on TRPA1
zinc gluconate				3963.5		BLOCK BOTH MENTHOL AND AITC ON TRPA1	BLOCK BOTH MENTHOL AND AITC ON TRPA1	% Reduction of L-Menthol TRPV1 Activation (human TRPV1 [2]): 38.1%
